Measurements: ChEMBL document CHEMBL4602709 (ACS Med Chem Lett, 2020)

Experiments:
[1] = target: Proto-oncogene tyrosine-protein kinase Src (Homo sapiens, UniProt P12931); assay: Inhibition of SRC (unknown origin) assessed as residual activity incubated for 5 mins in presence of [gamma-33ATP] by scintillation counting based radiometry assay
[2] = target: T1, Ephrin type-B receptor 3 (Homo sapiens, UniProt P54753); assay: Inhibition of EPHB3 (unknown origin) assessed as residual activity incubated for 5 mins in presence of [gamma-33ATP] by scintillation counting based radiometry assay
T1 sequence (P54753 whole entry): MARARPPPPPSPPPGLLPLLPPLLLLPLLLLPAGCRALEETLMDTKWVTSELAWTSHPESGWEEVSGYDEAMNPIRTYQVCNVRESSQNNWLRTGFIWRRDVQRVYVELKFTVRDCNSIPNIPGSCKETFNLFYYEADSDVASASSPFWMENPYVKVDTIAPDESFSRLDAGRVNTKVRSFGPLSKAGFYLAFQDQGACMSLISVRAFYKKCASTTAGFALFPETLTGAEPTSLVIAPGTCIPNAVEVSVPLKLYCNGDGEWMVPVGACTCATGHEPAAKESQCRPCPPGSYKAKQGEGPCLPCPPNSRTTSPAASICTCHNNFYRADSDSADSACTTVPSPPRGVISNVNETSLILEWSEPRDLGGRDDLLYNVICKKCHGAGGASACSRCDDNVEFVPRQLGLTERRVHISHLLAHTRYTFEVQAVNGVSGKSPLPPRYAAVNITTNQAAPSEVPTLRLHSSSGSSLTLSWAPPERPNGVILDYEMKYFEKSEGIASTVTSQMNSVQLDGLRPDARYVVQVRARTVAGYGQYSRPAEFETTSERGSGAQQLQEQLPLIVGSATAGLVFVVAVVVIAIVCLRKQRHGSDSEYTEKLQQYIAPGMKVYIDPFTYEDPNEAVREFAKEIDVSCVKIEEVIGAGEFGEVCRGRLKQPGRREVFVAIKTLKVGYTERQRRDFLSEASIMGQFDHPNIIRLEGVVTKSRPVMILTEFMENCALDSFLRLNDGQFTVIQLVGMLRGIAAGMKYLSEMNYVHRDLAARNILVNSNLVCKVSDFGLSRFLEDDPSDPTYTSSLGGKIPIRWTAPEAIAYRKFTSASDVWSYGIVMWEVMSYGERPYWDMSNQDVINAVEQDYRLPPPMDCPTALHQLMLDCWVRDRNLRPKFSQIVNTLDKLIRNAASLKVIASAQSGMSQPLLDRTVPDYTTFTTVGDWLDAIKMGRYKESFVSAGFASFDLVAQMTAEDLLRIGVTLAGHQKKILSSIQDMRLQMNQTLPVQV

[3] = target: Tyrosine-protein kinase ABL1 (Homo sapiens, UniProt P00519); assay: Inhibition of human ABL1 assessed as residual activity using EAIYAAPFAKKK as substrate by [gamma-33P]-ATP assay
Sequence of Tyrosine-protein kinase ABL1 (P00519 whole entry): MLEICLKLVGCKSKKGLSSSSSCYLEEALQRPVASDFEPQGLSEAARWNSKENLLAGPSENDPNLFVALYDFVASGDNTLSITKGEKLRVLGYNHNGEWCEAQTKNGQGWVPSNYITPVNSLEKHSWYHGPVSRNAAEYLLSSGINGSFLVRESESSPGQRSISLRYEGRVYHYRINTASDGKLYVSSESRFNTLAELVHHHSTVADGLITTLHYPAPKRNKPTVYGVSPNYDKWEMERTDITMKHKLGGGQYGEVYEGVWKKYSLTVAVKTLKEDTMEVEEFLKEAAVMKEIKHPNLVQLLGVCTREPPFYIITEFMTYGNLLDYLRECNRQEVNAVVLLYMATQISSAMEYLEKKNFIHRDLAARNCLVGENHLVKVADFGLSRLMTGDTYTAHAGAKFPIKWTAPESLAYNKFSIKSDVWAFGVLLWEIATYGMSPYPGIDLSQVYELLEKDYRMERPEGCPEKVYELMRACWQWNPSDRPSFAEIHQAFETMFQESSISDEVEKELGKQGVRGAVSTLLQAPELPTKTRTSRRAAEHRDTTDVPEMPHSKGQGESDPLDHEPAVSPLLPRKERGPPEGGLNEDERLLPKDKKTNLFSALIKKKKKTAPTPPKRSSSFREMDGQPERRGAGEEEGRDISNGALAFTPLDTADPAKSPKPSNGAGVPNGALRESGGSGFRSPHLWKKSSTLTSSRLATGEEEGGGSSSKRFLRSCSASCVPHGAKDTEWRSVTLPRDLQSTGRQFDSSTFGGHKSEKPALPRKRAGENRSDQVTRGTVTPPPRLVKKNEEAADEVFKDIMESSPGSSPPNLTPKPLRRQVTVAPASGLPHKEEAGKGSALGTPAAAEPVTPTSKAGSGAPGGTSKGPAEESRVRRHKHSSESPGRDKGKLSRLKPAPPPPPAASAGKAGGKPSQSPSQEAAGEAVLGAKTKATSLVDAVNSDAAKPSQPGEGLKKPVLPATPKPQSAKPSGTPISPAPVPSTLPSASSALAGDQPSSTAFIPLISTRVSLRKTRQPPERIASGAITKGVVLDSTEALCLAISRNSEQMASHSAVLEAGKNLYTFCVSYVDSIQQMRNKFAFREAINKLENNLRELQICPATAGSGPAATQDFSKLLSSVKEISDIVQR

[4] = target: Voltage-gated inwardly rectifying potassium channel KCNH2 (Homo sapiens, UniProt Q12809); assay: Inhibition of human ERG incubated for 4 hrs by competitive fluorescence tracer binding based assay
Sequence of Voltage-gated inwardly rectifying potassium channel KCNH2 (Q12809 whole entry): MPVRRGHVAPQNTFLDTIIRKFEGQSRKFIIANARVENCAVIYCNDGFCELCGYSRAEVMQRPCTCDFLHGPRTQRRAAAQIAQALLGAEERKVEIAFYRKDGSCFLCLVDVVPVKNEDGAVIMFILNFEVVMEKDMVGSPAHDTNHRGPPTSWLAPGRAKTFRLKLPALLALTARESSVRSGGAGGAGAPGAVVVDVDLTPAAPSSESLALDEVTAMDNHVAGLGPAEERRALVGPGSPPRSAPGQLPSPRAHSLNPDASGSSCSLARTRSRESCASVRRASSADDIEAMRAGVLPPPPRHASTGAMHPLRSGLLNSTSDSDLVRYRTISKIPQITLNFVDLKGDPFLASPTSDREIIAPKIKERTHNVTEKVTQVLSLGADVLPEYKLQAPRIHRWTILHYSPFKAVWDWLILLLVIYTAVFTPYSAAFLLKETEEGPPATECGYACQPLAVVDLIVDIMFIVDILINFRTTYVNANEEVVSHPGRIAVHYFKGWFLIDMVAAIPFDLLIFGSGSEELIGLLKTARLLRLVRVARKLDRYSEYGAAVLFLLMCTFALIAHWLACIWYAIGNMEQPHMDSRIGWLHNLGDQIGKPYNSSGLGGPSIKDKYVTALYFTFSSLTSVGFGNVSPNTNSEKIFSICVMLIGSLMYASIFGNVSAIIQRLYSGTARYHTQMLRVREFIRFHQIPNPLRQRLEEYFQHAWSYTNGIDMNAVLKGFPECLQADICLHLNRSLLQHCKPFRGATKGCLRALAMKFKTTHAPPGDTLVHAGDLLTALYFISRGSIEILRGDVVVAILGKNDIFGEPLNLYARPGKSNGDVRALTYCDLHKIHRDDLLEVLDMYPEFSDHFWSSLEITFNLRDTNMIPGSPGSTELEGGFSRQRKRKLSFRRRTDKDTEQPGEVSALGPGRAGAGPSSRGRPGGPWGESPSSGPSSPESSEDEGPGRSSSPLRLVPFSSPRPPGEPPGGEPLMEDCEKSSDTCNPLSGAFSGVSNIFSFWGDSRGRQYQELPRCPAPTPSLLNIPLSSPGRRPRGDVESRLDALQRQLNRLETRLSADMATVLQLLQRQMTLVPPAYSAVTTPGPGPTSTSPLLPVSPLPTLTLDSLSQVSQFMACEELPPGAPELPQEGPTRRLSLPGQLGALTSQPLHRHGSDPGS

[5] = target: Platelet-derived growth factor receptor alpha (Homo sapiens, UniProt P16234); assay: Inhibition of PDGFRalpha (unknown origin) assessed as residual activity incubated for 5 mins in presence of [gamma-33ATP] by scintillation counting based radiometry assay
Sequence of Platelet-derived growth factor receptor alpha (P16234 whole entry): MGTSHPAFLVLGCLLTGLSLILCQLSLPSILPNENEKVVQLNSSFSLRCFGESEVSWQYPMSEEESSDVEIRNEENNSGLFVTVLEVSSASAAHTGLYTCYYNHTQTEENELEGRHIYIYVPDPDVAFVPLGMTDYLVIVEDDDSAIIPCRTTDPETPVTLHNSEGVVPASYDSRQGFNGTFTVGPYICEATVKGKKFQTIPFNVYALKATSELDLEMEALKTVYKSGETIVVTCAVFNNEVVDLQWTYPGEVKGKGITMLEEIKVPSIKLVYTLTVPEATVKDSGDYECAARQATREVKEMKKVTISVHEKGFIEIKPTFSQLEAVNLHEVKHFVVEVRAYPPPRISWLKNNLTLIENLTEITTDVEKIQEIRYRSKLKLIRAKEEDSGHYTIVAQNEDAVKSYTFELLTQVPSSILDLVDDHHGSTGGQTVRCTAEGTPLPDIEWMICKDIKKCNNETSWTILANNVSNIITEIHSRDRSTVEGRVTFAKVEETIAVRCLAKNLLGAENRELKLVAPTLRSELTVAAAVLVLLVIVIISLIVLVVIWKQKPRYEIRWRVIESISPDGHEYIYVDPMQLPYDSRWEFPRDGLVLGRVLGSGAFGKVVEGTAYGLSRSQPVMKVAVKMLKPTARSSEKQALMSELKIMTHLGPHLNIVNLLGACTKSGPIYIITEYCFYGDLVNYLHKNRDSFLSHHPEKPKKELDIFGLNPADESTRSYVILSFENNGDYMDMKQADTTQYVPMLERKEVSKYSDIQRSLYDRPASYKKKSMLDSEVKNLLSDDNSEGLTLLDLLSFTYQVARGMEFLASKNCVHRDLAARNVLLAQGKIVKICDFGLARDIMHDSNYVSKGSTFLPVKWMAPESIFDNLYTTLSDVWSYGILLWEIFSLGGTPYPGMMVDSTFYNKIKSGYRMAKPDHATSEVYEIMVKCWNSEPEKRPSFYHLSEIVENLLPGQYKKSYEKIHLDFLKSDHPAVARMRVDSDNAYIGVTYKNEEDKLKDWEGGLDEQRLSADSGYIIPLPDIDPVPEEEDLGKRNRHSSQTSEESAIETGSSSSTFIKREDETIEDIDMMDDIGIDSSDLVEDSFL

Sequence of Proto-oncogene tyrosine-protein kinase Src (P12931 2-536 limits assumed): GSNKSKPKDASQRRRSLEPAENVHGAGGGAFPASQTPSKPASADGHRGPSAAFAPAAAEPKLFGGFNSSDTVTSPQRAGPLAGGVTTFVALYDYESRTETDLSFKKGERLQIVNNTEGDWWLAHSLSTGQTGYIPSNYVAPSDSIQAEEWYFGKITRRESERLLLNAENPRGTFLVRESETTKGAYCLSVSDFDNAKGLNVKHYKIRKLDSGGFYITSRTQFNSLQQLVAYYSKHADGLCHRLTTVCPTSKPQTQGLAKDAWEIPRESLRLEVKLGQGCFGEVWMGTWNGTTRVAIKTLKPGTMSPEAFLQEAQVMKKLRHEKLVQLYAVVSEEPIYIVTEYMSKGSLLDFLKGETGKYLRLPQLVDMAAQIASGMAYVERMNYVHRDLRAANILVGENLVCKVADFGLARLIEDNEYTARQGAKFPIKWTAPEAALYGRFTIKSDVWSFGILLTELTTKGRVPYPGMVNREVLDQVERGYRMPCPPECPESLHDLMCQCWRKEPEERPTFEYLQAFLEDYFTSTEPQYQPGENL

IC50 [1]: 431 nM | IC50 [2]: 19.5 nM | IC50 [3]: 8.31 nM | IC50 [5]: 2 nM
Structure (SMILES): Cc1ccc(C(=O)Nc2ccc(CN3Cc4cn[nH]c4C3)c(Cl)c2)cc1C#Cc1cnc2cccnn12
IC50 [4]: 12100 nM
